Results from patent US20050065041A1, “GELLED ACID” (SCHLUMBERGER TECHNOLOGY CORPORATION, priority 2003, published 2005).
≈ marks a conversion by molar mass, not a printed value. Like-named read-outs stand apart in the source and are kept apart here.

What was measured:
[1] = Bioaccumulation (Log Pow), OECD Method 117; format: physicochemical; settings: component in aqueous composition of Table 2
Description: (§1) The bioaccumulation testing was done according to Organization of Economic Co-operation and Development, Paris, (OECD) Method 117. The biodegradation tests were done according to OECD 306. The toxicity tests were done according to the protocol required for application in the North Sea as recommended by OSPAR (the Oslo Paris Commission) for completion of HOCNF (Harmonized Offshore Chemical Notification Format) requirements. The methods are those in effect as of August, 2003, and the MSDS data and public health, safety and environment data given below are as of August, 2003.

[2] = tested on: Acartia tonsa; test: OSPAR/HOCNF aquatic toxicity test, Acartia tonsa; format: in vivo
Description: as §1
(§2) However, in addition to the excellent toxicity results shown in Table 2, in further OSPAR tests, 2-butanoneoxime had NOEC (No Observable Effect Concentration) values of 8.9 mg/L for Acartia tonsa (48 hours), 1000 mg/L for Scophthalamus maximus juvenile (96 hours), and 99.7 mg/L for Skeletonema Costatum (72 hours), and the 15 day BOD was 6.5%.

[3] = OSPAR/HOCNF aquatic toxicity test, Acartia tonsa; format: in vivo; settings: Acartia tonsa, in vivo; 48 hr; read-out: Acartia tonsa LC 50 48 hr
Description: as §1, §2

[4] = tested on: Skeletonema Costatum; test: OSPAR/HOCNF aquatic toxicity test, Skeletonema Costatum; format: in vivo
Description: as §1, §2

[5] = tested on: Scophthalamus maximus juvenile; test: OSPAR/HOCNF aquatic toxicity test, Scophthalamus maximus juvenile; format: in vivo
Description: as §1, §2

[6] = Diversion test in limestone cores; settings: 65.5° C., SDA fluid 5% HCl
Method: Diversion: Tests were completed with one-inch diameter and 4 inch length cores of Indiana Limestone. The initial permeability of each was determined with 3% NaCl brine in both the production and treatment directions prior to treatment with the gelled acid fluid. Then the gelled fluid was pumped at a constant pressure of about […] in the treatment direction. The time for acid break-through was also recorded. All tests were completed at 65.5° C. and constant pressure. Three cores were used to test for diversion in each case; two cores were about 18 to about 24 md and 1 core was about 45 to about 60 md. The initial and final permeabilities were determined. After the tests, all cores were CT scanned, cross sectional view, to visualize the wormholing.

[7] = Iron reduction performance: effect of pH and reagent concentration
[8] = MSDS and public data as of August, 2003; cited from earlier work
[9] = Iron reduction as a function of HCl spending; settings: reagent 2.00%
Method: Iron Reduction Performance: All solutions were prepared as indicated using about 0.5% by volume of a concentrate having about 40 weight percent FeCl3, and analyses were done with a HACH 2000 calorimeter, obtained from Hach Company, Loveland, Colo. Standard analyses were as described in the “Water Analyses Handbook,” Hach Company. Total iron was obtained by the FerroZine procedure by form ation of a purple complex observable at 562 nm. The ferrous iron content was determined by the phenanthroline complex procedure determined at 510 nm. An orange complex is formed which is proportional to the iron content. For each analysis, samples of the test solution were taken and diluted 1:100 with water and the appropriate, premeasured reagent pillows were added to the solution. Measurements were determined calorimetrically employing standards for the analyses. For ferrous content, analyses were made quickly to prevent oxidation due to air. Total iron required 5 minutes reaction time. If ferric content was needed, the content was obtained by difference.
The selected iron reducing agent should […] reduce the ferric iron in acid solutions. […] For each of these tests 2.0% of an approximately 10 to 12% aqueous solution or reducing agent or reducing agent precursor was evaluated. This represents approximately twice the concentration to adequately reduce the quantity of Fe^+3 present.

[10] = OECD 306B, seawater; cited from earlier work
[11] = HPLC Method OECD 117; cited from earlier work
[12] = tested on: Abra alba; test: OSPAR/HOCNF toxicity test, Abra alba; format: in vivo; settings: printed in the column headed Scophthalamus maximus juvenile EC 50 96 hr
Description: as §1

[13] = Biodegradation (BOD), OECD 306; settings: 28 day
Description: as §1

[14] = Acid spending tests with residue analysis at 121° C.; settings: 6.89 MPa, six hours
Method: Acid spending tests were designed and implemented to analyze for residue for spending tests completed at 121° C. These tests were done with amounts chosen such that not all the limestone could be dissolved. […] Reducing agents and reducing agent precursors were evaluated and compared with hydrazinium hydrochloride. Indiana Limestone was crushed and approximately 25 grams of the limestone chips were placed in ajar that would fit a small autoclave. The gelled acid (2.25-ml of gelled acid solution per gram of chips) was added to the limestone chips, stirred to mix well, placed in the autoclave, pressurized to 6.89 mPa, heated to 121° C. and maintained for six hours. At the conclusion of the test, the autoclave was cooled and depressurized. The jar and contents were removed for examination and analysis.
The spent gelled acid was poured through a strainer to observe the fluid and to determine whether the gel was broken. The chips were also rinsed with deionized water to remove gel and residue from the chips, which were examined and then dried and the final weight determined. All residues were rinsed from the jar and chips, combined, and filtered through a pre-weighed Whatman 541 filter paper. The filter paper was dried to a stable weight to obtain the residue weight.

[15] = Core 2 (highest permeability core)
[16] = Test 1: DI water + 0.50% FeCl3 (pH 2.03), reagent concentration 0.50%
[17] = Test 1: DI water + 0.50% FeCl3 (pH 2.03), reagent concentration 1.00%
[18] = Test 1: DI water + 0.50% FeCl3 (pH 2.03), reagent concentration 1.25%
[19] = Test 2: 15% HCl + 0.50% of a 40% FeCl3 Aqueous Solution, reagent concentration 0.50%
[20] = Test 2: 15% HCl + 0.50% of a 40% FeCl3 Aqueous Solution, reagent concentration 1.00%
[21] = Test 2: 15% HCl + 0.50% of a 40% FeCl3 Aqueous Solution, reagent concentration 1.25%
[22] = Test 2: 15% HCl + 0.50% of a 40% FeCl3 Aqueous Solution, reagent concentration […]
[23] = Test 3: 50% water/CaCl2 + 10% 15% HCl + 0.50% FeCl3, reagent concentration 0.50%
[24] = Test 3: 50% water/CaCl2 + 10% 15% HCl + 0.50% FeCl3, reagent concentration 1.00%
[25] = Test 3: 50% water/CaCl2 + 10% 15% HCl + 0.50% FeCl3, reagent concentration 1.25%
[26] = Test 2: 90% Spent 15% HCl + 0.50% FeCl3
[27] = Test 3: 95% Spent 15% HCl + 0.50% FeCl3
[28] = Test 4: 99% Spent 15% HCl + 0.50% FeCl3
[29] = Test 5: 99.5% Spent 15% HCl + 0.50% FeCl3
[30] = Test 1: DI water + 0.50% FeCl3 (pH 2.03), reagent concentration 1.50%
[31] = Test 1: DI water + 0.50% FeCl3 (pH 2.03), reagent concentration 2.00%
[32] = Test 2: 15% HCl + 0.50% of a 40% FeCl3 Aqueous Solution, reagent concentration 1.50%
[33] = Test 2: 15% HCl + 0.50% of a 40% FeCl3 Aqueous Solution, reagent concentration 2.00%
[34] = Test 3: 50% water/CaCl2 + 10% 15% HCl + 0.50% FeCl3, reagent concentration 1.50%
[35] = Test 3: 50% water/CaCl2 + 10% 15% HCl + 0.50% FeCl3, reagent concentration 2.00%

In the case of CCC(C)=NO [2-Butanone oxime], the chromatographic logP ([1]; octanol/water) is reported as 1.38, the “NOEC (No Observable Effect Concentration) Acartia tonsa” value ([2]; 48 hours) is reported as 8.9 mg/L and the LC50 at 48 h [3] is reported as 6930 µg/mL (≈ 79.6 mM). For the same compound, the “NOEC (No Observable Effect Concentration) Skeletonema Costatum” value ([4]; 72 hours) was 99.7 mg/L, the EC50 ([4]; Skeletonema costatum, 72 h, read-out: Skeletonema Costatum EC50 72 hr) was 470 µg/mL (≈ 5.39 mM) and the EC50 ([5]; 96 h, read-out: Scophthalamus maximus juvenile EC 50 96 hr) was greater than 3000 µg/mL. The “NOEC (No Observable Effect Concentration) Scophthalamus maximus juvenile” value ([5]; 96 hours) was 1000 mg/L, the “Final Permeability” value ([6]; Core 1) was 34.1 md and the “Final Permeability” value [6, 15] was greater than 5000 md. The “Final Permeability” value ([6]; Core 3) was 49.6 md.

In the case of NNC(=O)NN [Carbohydrazide], the Iron % reduced [7, 16] is reported as 27.3%, the “Iron Content Fe+2” value [7, 16] is reported as 390 mg/L and the Iron % reduced [7, 17] is reported as 38.5%. For the same compound, the “Iron Content Fe+2” value [7, 17] was 550 mg/L, the Iron % reduced [7, 18] was 46.9% and the “Iron Content Fe+2” value [7, 18] was 670 mg/L. The Iron % reduced [7, 19] was 0.8%, the “Iron Content Fe+2” value [7, 19] was 10 mg/L and the Iron % reduced [7, 20] was 12.2%. For the same compound, the “Iron Content Fe+2” value [7, 20] was 160 mg/L, the Iron % reduced [7, 21] was 29.8% and the “Iron Content Fe+2” value [7, 21] was 390 mg/L. The Iron % reduced [7, 22] was 0.8%, the “Iron Content Fe+2” value [7, 22] was 10 mg/L and the Iron % reduced [7, 23] was 13%. For the same compound, the “Iron Content Fe+2” value [7, 23] was 160 mg/L, the Iron % reduced [7, 24] was 15% and the “Iron Content Fe+2” value [7, 24] was 190 mg/L. For the same compound, the Iron % reduced [7, 25] was 15%, the “Iron Content Fe+2” value [7, 25] was 190 mg/L and the hazard rating [8] was “harmful and an irritant”. The EC50 ([4]; Skeletonema costatum, 72 h; read-out: Skeletonema Costatum EC50 72 hr) was 56.7 µg/mL (≈ 0.629 mM), the “Iron % reduced” value ([9]; Test 1: 15% HCl + 0.50% FeCl3) was 1.8% and the “Iron Content Fe+2” value ([9]; Test 1: 15% HCl + 0.50% FeCl3) was 20 mg/L. The “Iron % reduced” value [9, 26] was 8.0%, the “Iron Content Fe+2” value [9, 26] was 90 mg/L and the “Iron % reduced” value [9, 27] was 1.6%. For the same compound, the “Iron Content Fe+2” value [9, 27] was 20 mg/L, the “Iron % reduced” value [9, 28] was 20.0% and the “Iron Content Fe+2” value [9, 28] was 160 mg/L. For the same compound, the “Iron % reduced” value [9, 29] was 12.3% and the “Iron Content Fe+2” value [9, 29] was 90 mg/L.

With CCN(O)CC [Diethylhydroxylamine, Diethylhydroxyl amine] the Iron % reduced [7, 16] was 65.7%, the “Iron Content Fe+2” value [7, 16] was 670 mg/L and the Iron % reduced [7, 17] was 73.5%. For the same compound, the “Iron Content Fe+2” value [7, 17] was 750 mg/L, the Iron % reduced [7, 18] was 75.5% and the “Iron Content Fe+2” value [7, 18] was 770 mg/L. For the same compound, the Iron % reduced [7, 30] was 84.3%, the “Iron Content Fe+2” value [7, 30] was 860 mg/L and the Iron % reduced [7, 31] was 89.2%. For the same compound, the “Iron Content Fe+2” value [7, 31] was 910 mg/L, the Iron % reduced [7, 19] was 34.3% and the “Iron Content Fe+2” value [7, 19] was 350 mg/L. For the same compound, the Iron % reduced [7, 20] was 48.0%, the “Iron Content Fe+2” value [7, 20] was 490 mg/L and the Iron % reduced [7, 32] was 52.9%. The “Iron Content Fe+2” value [7, 32] was 540 mg/L, the Iron % reduced [7, 33] was 83.3% and the “Iron Content Fe+2” value [7, 33] was 850 mg/L. For the same compound, the Iron % reduced [7, 23] was 25%, the “Iron Content Fe+2” value [7, 23] was 310 mg/L and the Iron % reduced [7, 24] was 42%. For the same compound, the “Iron Content Fe+2” value [7, 24] was 520 mg/L, the Iron % reduced [7, 34] was 47% and the “Iron Content Fe+2” value [7, 34] was 590 mg/L. The Iron % reduced [7, 35] was 61%, the “Iron Content Fe+2” value [7, 35] was 760 mg/L and the biodegradation [10] was “less than 60%”. The “bioaccumulation (Log Pow), literature value” [11] was 0.43, the hazard rating [8] was “harmful and an irritant” and the “Iron % reduced” value ([9]; Test 1: 15% HCl + 0.50% FeCl3) was 54.4%. For the same compound, the “Iron Content Fe+2” value ([9]; Test 1: 15% HCl + 0.50% FeCl3) was 620 mg/L, the “Iron % reduced” value [9, 26] was 66.4% and the “Iron Content Fe+2” value [9, 26] was 750 mg/L. For the same compound, the “Iron % reduced” value [9, 27] was 74.4%, the “Iron Content Fe+2” value [9, 27] was 930 mg/L and the “Iron % reduced” value [9, 28] was 88.8%. The “Iron Content Fe+2” value [9, 28] was 710 mg/L, the “Iron % reduced” value [9, 29] was 89.0% and the “Iron Content Fe+2” value [9, 29] was 650 mg/L.

For NN [Hydrazine], the hazard rating [8] is given as “toxic to aquatic species”.

With Cl.NN [Hydrazinium hydrochloride] the “Bioaccumulation Log Pow” value [1] was less than 0, the Abra alba toxicity [12] was 96 mg/L and the “Acartia tonsa LC 50 48 hr” value ([2]; 48 hr) was 0.37 µg/mL. The “Biodegradability BOD28 day” value [13] was 84%, the “Residue Remaining” value [14] was 0.278 g and the hazard rating [8] was “toxic by all routes”. For the same compound, the “Skeletonema Costatum EC50 24 hr” value ([4]; 24 hr) was 0.38 µg/mL, the “Final Permeability” value ([6]; Core 1) was 14.1 md and the “Final Permeability” value [6, 15] was greater than 5000 md. The “Final Permeability” value ([6]; Core 3) was 6.8 md.
